Tests used:
HLA.A2 = test: Binding of GAD65 546-554 fragments to human MHC class I
From the text: Treatments which reduce GAD65 response can ameliorate Type 1 diabetes in NOD mice (spontaneous responses in NOD and NOD.HLA.A2 mice; the GAD65 546-554 fragments bind Kd and HLA.A2). Unlike the GAD65 molecule, the APL compositions can target a specific set of T cells and reduce the risk of accidental activation of pathogenic T cells.
The mouse (Kd) and human (HLA-A2) are associated with increased risk of Type 1 diabetes.

CTL clones = test: IFN release by CTL clones (FIG. 7, Table I); format: cell-based; design: Percent Reduction of IFN release: concentration or dose not given beside the values
CTL clone 14.86 = test: THF release by CTL clone 14.86 (FIG. 8, Table 2); format: cell-based; conditions: for Percent Reduction of THF: clone 14.86
From the text: ID No.:11] decreases THF of CTL clone 14.86.

Row | binding to HLA.A2 (HLA.A2) | Substance | Percent Reduction of IFN release (CTL clones; clone 14.69, A375) | Percent Reduction of IFN release (CTL clones; clone 14.69, B7) | Percent Reduction of IFN release (CTL clones; clone 14.81, A375) | Percent Reduction of IFN release (CTL clones; clone 14.81, B7) | Percent Reduction of IFN release (CTL clones; clone 14.86, A375) | Percent Reduction of IFN release (CTL clones; clone 14.86, B7) | IFN release (effect in words) (CTL clones; various CLT clones) | THF of CTL clone (effect in words) (CTL clone 14.86; CTL clone 14.86) | Percent Reduction of THF (CTL clone 14.86; A375) | Percent Reduction of THF (CTL clone 14.86; B7)
1 | bind | GAD65 546-554: natural 546-554 fragment of glutamic acid decarboxylase GAD65; probably SEQ.ID No. 2 (SYQPLGDKV) |  |  |  |  |  |  |  |  |  | 
2 |  | S-Y-Q-P-L-G-D-K-A (SYQPLGDKA) [APL-70] | 41% | 27% | 31% | 23% | 16% | 17% | decreases IFN release | decreases THF | 37% | 34%

Reference: patent US7994279B2, “Altered peptide ligands of GAD65” (The University of Toledo, priority 2006, dated 2011)
